Reference: ChEMBL document CHEMBL4138123, “Design, synthesis and biological evaluation of novel pyrazolochalcones as potential modulators of PI3K/Akt/mTOR pathway and inducers of apoptosis in breast cancer cells” (Eur J Med Chem, 2017)

Tests used:
Assay type in all cases: functional
[1] = system: NCI-H460; test: Cytotoxicity against human NCI-H460 cells assessed as growth inhibition after 48 hrs by sulforhodamine B assay; conditions: NCI-H460, 48 h
[2] = system: HT-29; test: Cytotoxicity against human HT-29 cells assessed as growth inhibition after 48 hrs by sulforhodamine B assay; conditions: HT-29, 48 h
[3] = system: SF-539; test: Cytotoxicity against human SF539 cells assessed as growth inhibition after 48 hrs by sulforhodamine B assay; conditions: SF-539, 48 h
[4] = system: UACC-62; test: Cytotoxicity against human UACC62 cells assessed as growth inhibition after 48 hrs by sulforhodamine B assay; conditions: UACC-62, 48 h
[5] = system: DU-145; test: Cytotoxicity against human DU145 cells assessed as growth inhibition after 48 hrs by sulforhodamine B assay; conditions: DU-145, 48 h; for CC50: read-out: LC50 (the source's name)
[6] = system: A498; test: Cytotoxicity against human A498 cells assessed as cell growth at 0.01 uM after 48 hrs by sulforhodamine B assay relative to control; conditions: A498, 48 h, read-out: Activity
[7] = system: OVCAR-3; test: Cytotoxicity against human OVCAR3 cells assessed as cell growth at 0.01 uM after 48 hrs by sulforhodamine B assay relative to control; conditions: OVCAR-3, 48 h, read-out: Activity
[8] = system: UACC-257; test: Cytotoxicity against human UACC257 cells assessed as cell growth at 0.01 uM after 48 hrs by sulforhodamine B assay relative to control; conditions: UACC-257, 48 h, read-out: Activity
[9] = system: SK-MEL-5; test: Cytotoxicity against human SK-MEL-5 cells assessed as cell growth at 0.01 uM after 48 hrs by sulforhodamine B assay relative to control; conditions: SK-MEL-5, 48 h, read-out: Activity
[10] = system: K562; test: Cytotoxicity against human K562 cells assessed as cell growth at 0.01 uM after 48 hrs by sulforhodamine B assay relative to control; conditions: K562, 48 h, read-out: Activity
[11] = system: NCI-H460; test: Cytotoxicity against human NCI-H460 cells assessed as cell growth at 0.1 uM after 48 hrs by sulforhodamine B assay relative to control; conditions: NCI-H460, 48 h, read-out: Activity
[12] = system: HCC 2998; test: Cytotoxicity against human HCC2998 cells assessed as cell growth at 0.1 uM after 48 hrs by sulforhodamine B assay relative to control; conditions: HCC 2998, 48 h, read-out: Activity
[13] = system: M14; test: Cytotoxicity against human M14 cells assessed as cell growth at 0.1 uM after 48 hrs by sulforhodamine B assay relative to control; conditions: M14, 48 h, read-out: Activity
[14] = system: TK-10; test: Cytotoxicity against human TK10 cells assessed as cell growth at 0.1 uM after 48 hrs by sulforhodamine B assay relative to control; conditions: TK-10, 48 h, read-out: Activity
[15] = system: MOLT-4; test: Cytotoxicity against human MOLT4 cells assessed as cell growth at 1 uM after 48 hrs by sulforhodamine B assay relative to control; conditions: MOLT-4, 48 h, read-out: Activity
[16] = system: HCT-116; test: Cytotoxicity against human HCT116 cells assessed as cell growth at 1 uM after 48 hrs by sulforhodamine B assay relative to control; conditions: HCT-116, 48 h, read-out: Activity
[17] = system: SK-OV-3; test: Cytotoxicity against human SKOV3 cells assessed as cell growth at 1 uM after 48 hrs by sulforhodamine B assay relative to control; conditions: SK-OV-3, 48 h, read-out: Activity
[18] = system: TK-10; test: Cytotoxicity against human TK10 cells assessed as cell growth at 1 uM after 48 hrs by sulforhodamine B assay relative to control; conditions: TK-10, 48 h, read-out: Activity
[19] = system: UO-31; test: Cytotoxicity against human UO31 cells assessed as cell growth at 1 uM after 48 hrs by sulforhodamine B assay relative to control; conditions: UO-31, 48 h, read-out: Activity
[20] = system: PC-3; test: Cytotoxicity against human PC3 cells assessed as cell growth at 1 uM after 48 hrs by sulforhodamine B assay relative to control; conditions: PC-3, 48 h, read-out: Activity
[21] = system: MCF7; test: Cytotoxicity against human MCF7 cells assessed as cell growth at 1 uM after 48 hrs by sulforhodamine B assay relative to control; conditions: MCF7, 48 h, read-out: Activity
[22] = system: NCI-H23; test: Cytotoxicity against human NCI-H23 cells assessed as cell growth at 10 uM after 48 hrs by sulforhodamine B assay relative to control; conditions: NCI-H23, 48 h, read-out: Activity
[23] = system: COLO 205; test: Cytotoxicity against human COLO205 cells assessed as cell growth at 10 uM after 48 hrs by sulforhodamine B assay relative to control; conditions: COLO 205, 48 h, read-out: Activity
[24] = system: KM12; test: Cytotoxicity against human KM12 cells assessed as cell growth at 10 uM after 48 hrs by sulforhodamine B assay relative to control; conditions: KM12, 48 h, read-out: Activity
[25] = system: UACC-257; test: Cytotoxicity against human UACC257 cells assessed as cell growth at 10 uM after 48 hrs by sulforhodamine B assay relative to control; conditions: UACC-257, 48 h, read-out: Activity
[26] = system: OVCAR-5; test: Cytotoxicity against human OVCAR5 cells assessed as cell growth at 10 uM after 48 hrs by sulforhodamine B assay relative to control; conditions: OVCAR-5, 48 h, read-out: Activity
[27] = system: Hs-578T; test: Cytotoxicity against human Hs 578T cells assessed as cell growth at 10 uM after 48 hrs by sulforhodamine B assay relative to control; conditions: read-out: Activity
[28] = system: SR; test: Cytotoxicity against human SR cells assessed as cell growth at 100 uM after 48 hrs by sulforhodamine B assay relative to control; conditions: read-out: Activity
[29] = system: NCI-H322M; test: Cytotoxicity against human NCI-H322M cells assessed as cell growth at 100 uM after 48 hrs by sulforhodamine B assay relative to control; conditions: read-out: Activity
[30] = system: KM12; test: Cytotoxicity against human KM12 cells assessed as cell growth at 100 uM after 48 hrs by sulforhodamine B assay relative to control; conditions: KM12, 48 h, read-out: Activity
[31] = system: SF-268; test: Cytotoxicity against human SF268 cells assessed as cell growth at 100 uM after 48 hrs by sulforhodamine B assay relative to control; conditions: SF-268, 48 h, read-out: Activity
[32] = system: U-251; test: Cytotoxicity against human U251 cells assessed as cell growth at 100 uM after 48 hrs by sulforhodamine B assay relative to control; conditions: U-251, 48 h, read-out: Activity
[33] = system: TK-10; test: Cytotoxicity against human TK10 cells assessed as cell growth at 100 uM after 48 hrs by sulforhodamine B assay relative to control; conditions: TK-10, 48 h, read-out: Activity
[34] = system: MCF7; test: Cytotoxicity against human MCF7 cells assessed as cell growth at 100 uM after 48 hrs by sulforhodamine B assay relative to control; conditions: MCF7, 48 h, read-out: Activity
[35] = system: MDA-MB-231; test: Cytotoxicity against human MDA-MB-231 cells assessed as cell growth at 100 uM after 48 hrs by sulforhodamine B assay relative to control; conditions: MDA-MB-231, 48 h, read-out: Activity

## COc1ccc(-c2cc(/C=C/C(=O)c3cc(OC)c(OC)c(OC)c3)[nH]n2)cc1OC
[1]
  GI50: 1.04 µM
  LC50: 29.9 µM
  TGI: 3.6 µM
[2]
  GI50: 1.3 µM
  LC50: 5.75 µM
  TGI: 2.73 µM
[3]
  GI50: 0.3 µM
  LC50 (concentration killing 50% of cells): 4.57 µM
  TGI: 1.48 µM
[4]
  GI50: 1.79 µM
  LC50: 8.39 µM
  TGI: 3.88 µM
[5]
  GI50: 1.83 µM
  TGI: 4.12 µM
  CC50: 9.28 µM
[6]
  growth at 0.01 µM: 99%
[7]
  growth at 0.01 µM: 99%
[8]
  growth at 0.01 µM: 96%
[9]
  growth at 0.01 µM: 101%
[10]
  growth at 0.01 µM: 100%
[11]
  growth at 0.1 µM: 100%
[12]
  growth at 0.1 µM: 100%
[13]
  growth at 0.1 µM: 92%
[14]
  growth at 0.1 µM: 89%
[15]
  growth at 1 µM: 69%
[16]
  growth at 1 µM: 27%
[17]
  growth at 1 µM: 87%
[18]
  growth at 1 µM: 96%
[19]
  growth at 1 µM: 67%
[20]
  growth at 1 µM: 71%
[21]
  growth at 1 µM: 53%
[22]
  growth at 10 µM: -39%
[23]
  growth at 10 µM: -72%
[24]
  growth at 10 µM: -81%
[25]
  growth at 10 µM: -64%
[26]
  growth at 10 µM: -47%
[27]
  growth at 10 µM: 9%
[28]
  growth at 100 µM: -14%
[29]
  growth at 100 µM: -91%
[30]
  growth at 100 µM: -64%
[31]
  growth at 100 µM: -72%
[32]
  growth at 100 µM: -94%
[33]
  growth at 100 µM: -94%
[34]
  growth at 100 µM: -43%
[35]
  growth at 100 µM: -71%

## COc1ccc(C(=O)/C=C/c2cc(-c3ccc(OC)c(OC)c3)n[nH]2)cc1OC
[1]
  GI50: 0.606 µM
  TGI: 4.36 µM
[2]
  GI50: 1.38 µM
  TGI: 4.95 µM
[3]
  GI50: 0.525 µM
  TGI: 2.54 µM
[4]
  GI50: 1.86 µM
  TGI: 4.08 µM
[5]
  GI50: 1.64 µM
  TGI: 4.8 µM
  CC50: 17.4 µM
[6]
  growth at 0.01 µM: 82%
[7]
  growth at 0.01 µM: 107%
[8]
  growth at 0.01 µM: 93%
[9]
  growth at 0.01 µM: 96%
[10]
  growth at 0.01 µM: 101%
[11]
  growth at 0.1 µM: 99%
[12]
  growth at 0.1 µM: 101%
[13]
  growth at 0.1 µM: 94%
[14]
  growth at 0.1 µM: 96%
[15]
  growth at 1 µM: 73%
[16]
  growth at 1 µM: 21%
[17]
  growth at 1 µM: 90%
[18]
  growth at 1 µM: 106%
[19]
  growth at 1 µM: 72%
[20]
  growth at 1 µM: 69%
[21]
  growth at 1 µM: 49%
[22]
  growth at 10 µM: -30%
[23]
  growth at 10 µM: -84%
[24]
  growth at 10 µM: -80%
[25]
  growth at 10 µM: -41%
[26]
  growth at 10 µM: -30%
[27]
  growth at 10 µM: 23%
[28]
  growth at 100 µM: -17%
[29]
  growth at 100 µM: -48%
[30]
  growth at 100 µM: -74%
[31]
  growth at 100 µM: -25%
[32]
  growth at 100 µM: -53%
[33]
  growth at 100 µM: -12%
[34]
  growth at 100 µM: -40%
[35]
  growth at 100 µM: -28%

## COc1ccc(C(=O)/C=C/c2cc(-c3cc(OC)c(OC)c(OC)c3)n[nH]2)cc1OC
[1]
  LC50: 7.86 µM
  TGI: 3.33 µM
[2]
  LC50: 5.75 µM
  TGI: 3.05 µM
[3]
  GI50: 1.27 µM
  LC50 (concentration killing 50% of cells): 5.31 µM
  TGI: 2.6 µM
[4]
  LC50: 5.98 µM
  TGI: 3.22 µM
[5]
  TGI: 1.84 µM
  CC50: 4.76 µM
[6]
  growth at 0.01 µM: 97%
[7]
  growth at 0.01 µM: 100%
[8]
  growth at 0.01 µM: 85%
[9]
  growth at 0.01 µM: 97%
[10]
  growth at 0.01 µM: 96%
[11]
  growth at 0.1 µM: 101%
[12]
  growth at 0.1 µM: 88%
[13]
  growth at 0.1 µM: 98%
[14]
  growth at 0.1 µM: 90%
[15]
  growth at 1 µM: 88%
[16]
  growth at 1 µM: 47%
[17]
  growth at 1 µM: 100%
[18]
  growth at 1 µM: 71%
[19]
  growth at 1 µM: 67%
[20]
  growth at 1 µM: 71%
[21]
  growth at 1 µM: 31%
[22]
  growth at 10 µM: -36%
[23]
  growth at 10 µM: -93%
[24]
  growth at 10 µM: -87%
[25]
  growth at 10 µM: -98%
[26]
  growth at 10 µM: -93%
[27]
  growth at 10 µM: -9%
[28]
  growth at 100 µM: 3%
[29]
  growth at 100 µM: -90%
[30]
  growth at 100 µM: -75%
[31]
  growth at 100 µM: -88%
[32]
  growth at 100 µM: -99%
[33]
  growth at 100 µM: -99%
[34]
  growth at 100 µM: -66%
[35]
  growth at 100 µM: -84%
